Laboratory results taken from paper PMC8584265, “Stress Driven Discovery of Natural Products From Actinobacteria with Anti-Oxidant and Cytotoxic Activities Including Docking and ADMET Properties” (International Journal of Molecular Sciences, 2021).
≈ marks a conversion by molar mass, not a printed value. Where two headings read alike, the source gives them in different places.

Assays:
[1] = DPPH radical scavenging assay; format: biochemical; details: for inhibition of free radical (DPPH): 100 µg/mL; for IC50 DPPH Scavenging: mean ± SD, triplicate
Procedure: (§1) To evaluate the antioxidant potential of the stress compound, a multifaceted antioxidant evaluation of a stress compound was performed via DPPH scavenging assay, OH● radical scavenging assay, NO scavenging assay, and Iron chelating assay by following pre-described protocols.

NO scavenging assay = format: biochemical; details: for IC50 NO Inhibition: mean ± SD, triplicate
Procedure: as §1

[2] = system: prostate cancer cells (PC3); test: MTT cytotoxicity assay; format: cell-based; details: Homo sapiens
Procedure: MTT assay was used to assess cytotoxicity against the human prostate PC3 cell line. […] PC3 cells were cultured in a humidified CO2 incubator at 37 °C in complete growth medium RPMI 1640 enriched with 2.2 g/L NaHCO3, 100 µg/mL streptomycin sulfate, 10% v/v heat-inactivated fetal bovine serum (HIFBS), […] amphotericin B, and 100 IU/mL penicillin G sodium. 20 µL of a compound in 1% DMSO in PBS and 180 µL of PC3 cancer cells were combined in a 96-well plate to reach a final concentration of 20 µg/mL for evaluating the cytotoxicity on PC3 cancer cells. The cells were loaded at an assay density of 1 × 10^4 cells/mL. The plate was incubated in humidified 5% CO2 at 37 °C for 24 h, 48 h, and 72 h. Cabazitaxel was utilized as a positive control, and 1 percent DMSO in PBS was employed as a negative control. Cabazitaxel was procured from Enzo life sciences, Fisher Scientific (Thermo Fisher Scientific, California, USA) CAS-183133-96-2 (ENZCHM2170010). A stock solution (4 mg/mL) of Cabazitaxel was prepared in DMSO and diluted in 1× PBS to make it 1% DMSO. Then serial dilutions of the standard compound were prepared in such a way that wells received 50, 25, 12.5, 6.25, and 3.12 µg/mL of Cabazitaxel with ≤1% DMSO. After that, 20 µL of pre-filter sterilized MTT solution was added to plates and incubated at 37 °C for 4 h in a CO2 incubator. Colored formazan crystals were detached by deliberately removing the supernatant and dissolved in 100 µL of DMSO with absorbance measured at 540 nm using Elx 800 microplate reader. Cytotoxicity was calculated using the following formula:% cytotoxicity = [100−(As/Ac × 100)] (1) where As and Ac show the absorbance of sample and negative control, respectively. Cytotoxicity was calculated with GraphPad Prism 5 software.

Iron chelating assay = format: biochemical; details: for IC50 Iron Chelation: mean ± SD, triplicate
Procedure: as §1

blood lymphocytes = test: Comet assay (genotoxicity); format: cell-based
Procedure: To evaluate toxicity, blood lymphocytes were treated with 10 and 20 µg/mL MVL samples, 20 µg/mL EMS (positive), 1% DMSO in PBS (negative control), and comet assay was performed. The slides were envisioned under a fluorescent microscope, and the extent of DNA damage was evaluated by analyzing the photomicrographs via CASP 1.2.3.b image analysis. Analysis of 50–100 cells from each sample was performed to assess comet length, head length, tail length, tail moment, DNA content in the head, and tail of lymphocytes. […] The tail length (18.5 ± 1.4 µm) of EMS-treated DNA clearly indicates the production of nicks in nuclear content, representing a greater extent of genotoxicity. […]

[3] = OH● radical scavenging assay; format: biochemical; details: for inhibition of OH● radicals: 100 µg/mL; for IC50 OH● Inhibition: mean ± SD, triplicate
Procedure: as §1

PC3 cells = test: In vitro scratch (cell migration) assay; format: cell-based, human; details: PC3, 10 µg/mL, 24 h treatment; control 16.62 ± 4.4%
Procedure: Stress compound MVL was tested for cell migration of PC3 using an established in vitro scratch test for 24 h. MVL (10 µg/mL) appeared to induce a significant reduction in cell migration at 12 and 24 h treatment of PC3. This was estimated by comparing the scratch area at every observation time as a percentage of control at 0 h. The area of scratch at 24 h treatment with MVL was recorded as 61.10 ± 5.2% compared to control (16.62 ± 4.4%) (Figure 5).
Figure 5 In vitro scratch assay on MVL treated prostate cancer cells. PC3 cells were plated in 6-well plates and scratched at the full confluence. […] Reduction in the area of the scratch was Photographed using Olympus CKX41 microscope and measured using ImageJ software. Data is mean ± SEM percent area of scratch in triplicate at ***: p < 0.001 and ****: p < 0.0001.
In vitro wounds were induced by a modified protocol described, and the scratch assay was performed on cells to study the effect of stress compound on cell migration. In the growth medium of 24-well plates, […] were injected at a density of 5 × 10^4 cells/well. After achieving about 100% proliferation, the cells were shifted to the basal media for 24 h. […] Images were recorded instantly after being wounded and then again portrayed at 0, 12, and 24 h time points. Using Image J software, cell migration rates were quantified by measuring the wound area change (pixels).

BAX = test: Western blot expression analysis in PC3 cells; format: cell-based, human; details: PC3, 0, 5 and 10 µg/mL, 48 h
Procedure: (§2) To unveil the possible mechanistic reason behind the anti-proliferation of cancer cell colonies in MTT assays, expression analysis of apoptotic proteins P53, BCL-2 and BAX were assessed via western blot technique (Figure 6). GAPDH served as a loading control. Prostate cancer cells (PC3) were treated with compound MVL at three concentrations (0, 5, and 10 µg/mL) for 48 h. Protein (40–60 µg) from protein lysate was segregated and probed with specified monoclonal antibodies.
(§3) Figure 6 Western blot analysis of proteins associated with MVL induced apoptosis. Prostate cancer cells, PC3 were treated with MVL at a concentration of 0, 5, and 10 µg/mL for 48 h. […] GAPDH was used as a loading control. Fold change in P-53, BAX, and BCL-2 expression after treating for 48 h with different concentrations of MVL. Means with different superscripts (^a–c) indicate significant (p < 0.001) difference in fold change between groups.
(§4) PC3 cells were cultured in a T75 flask (1 × 10^6/flask). After 48 h, cells were treated with […]. Following treatment, media was aspirated and cells were washed with cold PBS whose pH was maintained at 7.4 trypsinized and pelleted in 15 mL falcon tubes, and cold lysis buffer was added to the pellet. Protein extraction and western blot analysis were done by following the protocol described previously.

BCL-2 = test: Western blot expression analysis in PC3 cells; format: cell-based, human; details: PC3, 0, 5 and 10 µg/mL, 48 h
Procedure: as §2, §3, §4

P53 = test: Western blot expression analysis in PC3 cells; format: cell-based, human; details: PC3, 0, 5 and 10 µg/mL, 48 h
Procedure: as §2, §3, §4

SMILES | inhibition of free radical (DPPH) [1] [%] | IC50 DPPH Scavenging [1] [µg/mL] | inhibition of NO free radicals (NO scavenging assay) [%] | IC50 NO Inhibition (NO scavenging assay) [µg/mL] | IC50 ([2]; 24 h, read-out: IC50 24 h) [µg/mL] | IC50 ([2]; 48 h, read-out: IC50 48 h) [µg/mL] | IC50 ([2]; 72 h, read-out: IC50 72 h) [µg/mL] | iron chelation capacity (Iron chelating assay) [%] | IC50 Iron Chelation (Iron chelating assay) [µg/mL] | % DNA in Head (blood lymphocytes; 20 µg/mL) [%] | % DNA in Tail (blood lymphocytes; 20 µg/mL) | Comet Length (blood lymphocytes; 20 µg/mL) [µm] | Head Length (blood lymphocytes; 20 µg/mL) [µm] | Tail Length (blood lymphocytes; 20 µg/mL) [µm] | Tail Moment (blood lymphocytes; 20 µg/mL) | inhibition of OH● radicals [3] [%] | IC50 OH● Inhibition [3] [µg/mL] | other results
O=C1O[C@H]([C@@H](O)CO)C(O)=C1O [Ascorbic acid, reference compound] | 84.23 ± 2.9 | 6.52 ± 4.92 (≈ 37 µM) | 81.69 ± 2.69 | 8.44 ± 4.17 (≈ 47.9 µM) |  |  |  |  |  |  |  |  |  |  |  |  |  | 
CO[C@H]1C(=O)[C@]2(C)[C@@H](OC)C[C@H]3OC[C@@]3(OC(C)=O)[C@H]2[C@H](OC(=O)c2ccccc2)[C@]2(O)C[C@H](OC(=O)[C@H](O)[C@@H](NC(=O)OC(C)(C)C)c3ccccc3)C(C)=C1C2(C)C [Cabazitaxel, reference compound] |  |  |  |  | 21.2 ± 5.1 (≈ 25.3 µM) | 15.1 ± 5.7 (≈ 18.1 µM) | 9.25 ± 3.4 (≈ 11.1 µM) |  |  |  |  |  |  |  |  |  |  | 
O=C(O)CN(CCN(CC(=O)O)CC(=O)O)CC(=O)O [EDTA, reference compound] |  |  |  |  |  |  |  | 81.52 ± 4.67 | 10.20 ± 6.54 (≈ 34.9 µM) |  |  |  |  |  |  |  |  | 
CCOS(C)(=O)=O [EMS, Ethyl methane sulfonate, reference compound] |  |  |  |  |  |  |  |  |  | 56.6 ± 3.5 | 43.4 ± 1.8 ^¥ % | 42.6 ± 3.6 | 24.1 ± 2.7 | 18.5 ± 1.4 | 1.37 ± 0.11 ^¥ µm |  |  | 
O=C(O)c1cc(O)c(O)c(O)c1 [Gallic acid, reference compound] |  |  |  |  |  |  |  |  |  |  |  |  |  |  |  | 83.15 ± 3.67 | 6.26 ± 6.39 (≈ 36.8 µM) | 
CC1=CC(=O)OCC1 [MVL, anhydromevalonolactone] | 78.18 ± 4.2 | 19.65 ± 5.7 (≈ 175 µM) | 80.05 ± 3.88 | 15.49 ± 4.8 (≈ 138 µM) | 35.8 ± 4.2 (≈ 319 µM) | 23.3 ± 3.8 (≈ 208 µM) | 16.2 ± 6.5 (≈ 145 µM) | 70.96 ± 5.79 | 19.38 ± 7.11 (≈ 173 µM) | 80.6 ± 1.8 | 19.4 ± 2.6 ^β, ¥ % | 41.4 ± 2.4 | 31.7 ± 1.8 | 8.5 ± 1.3 | 0.24 ± 0.03 ^β, ¥ µm | 72.69 ± 4.93 | 19.65 ± 5.22 (≈ 175 µM) | area of scratch as percentage of control at 0 h (PC3 cells): 61.10 ± 5.2%; BAX protein expression (BAX): upregulation; BCL-2 protein expression (BCL-2): downregulation; P53 protein expression (P53): upregulation; % DNA in Head (blood lymphocytes; 10 µg/mL): 86.1 ± 2.8%; % DNA in Tail (blood lymphocytes; 10 µg/mL): 13.9 ± 1.8 ^β %; Comet Length (blood lymphocytes; 10 µg/mL): 42.6 ± 3.1 µm; Head Length (blood lymphocytes; 10 µg/mL): 36.7 ± 2.5 µm; Tail Length (blood lymphocytes; 10 µg/mL): 5.9 ± 0.3 µm; Tail Moment (blood lymphocytes; 10 µg/mL): 0.11 ± 0.03 ^β µm
